# Test results reported in paper PMC7371863, “Intracellular interplay between cholecystokinin and leptin signalling for satiety control in rats” (Scientific Reports, 2020).
# Entries after “also recorded” stand apart in the source; their conditions may differ.
# How the values were obtained:
# pSTAT3 in C6-ObRb cells = assay: Immunofluorescent staining of pSTAT3 in C6-ObRb cells; type: cell-based, rat C6 cells, mouse ObRb; conditions: for cytosolic pSTAT3 signal with kinase inhibitor: AG490 1 µM or LY294002 50 µM
# Experimental: (§1) Rat C6 glioma cells were cultured in Dulbecco’s Modified Eagle Medium/F12 (DMEM/F12) supplemented with 10% FBS, sodium bicarbonate (1.2 g/L), and 1% penicillin/streptomycin antibiotics at 37 °C in 5% CO2. The full-length mouse leptin receptor (ObRb) in pcDNA3.1 vector was kindly provided by Dr. Christian Bjørbaek (BIDMC, Harvard Medical School, Boston, MA, USA) and transfected using Lipofectamine 2000. Subsequently, the cells were cultured in medium containing 500 μg/mL G418 for cell selection.
# […] Cells were treatment with AG490 (1 μM) or LY294002 (50 μM) 15 min prior to the leptin stimulation until the time of fixation. These cells were fixed in 4% phosphate-buffered paraformaldehyde for 15 min and washed three times with PBS(−). The fixed samples were then incubated for 2 h at room temperature in 10% donkey serum dissolved in 0.1% Triton-X PBS(−). Next, samples were incubated with 1:100 affinity-purified rabbit phospho-STAT3 (pTyr^705) dissolved in 5% donkey serum PBS(−) for 24 h at 4 °C. After three 20-min PBS(−) rinses, samples were incubated in 1:400 Cy3-conjugated donkey anti-rabbit IgG for 2 h at room temperature. Finally, samples were rinsed with PBS(−) (four 15-min rinses on an orbital shaker) and mounted using Vectashield containing 4′,6-diamidino-2-phenylindole (DAPI).
# (§2) Images were acquired using a confocal laser-scanning microscope (Olympus FV1000 or Nikon A1R MP plus) with a laser diode (405 nm), argon laser (488 nm), and helium neon laser ([…]). The nuclear immunofluorescent intensity (8-bit depth) was analyzed using Photoshop CS 6 software.
# wild-type C6 cells = assay: Ca2+ imaging (Fura-2), leptin and CCK-8s signalling interaction in wild-type C6 cells; type: cell-based, rat
# Experimental: as §1
# C6 cells plated on 35 mm plastic dishes were gently rinsed with buffered salt solution (BSS) consisting of 130 mM NaCl, 5.4 mM KCl, 2 mM CaCl2, 1 mM MgCl2, 5.5 mM D-glucose, and 10 mM HEPES/NaOH (pH 7.4), and incubated in BSS supplemented with 6 µM Fura-2 AM (Dojindo Laboratories, Kumamoto, Japan) for 30 min in a CO2 incubator. Prior to photometry, the cells were rinsed again with BSS, incubated at 37°C for 15 min, and then continuously perfused with BSS at 34°C at a flow rate of 3 mL/min. Fluorescence images were obtained using an upright microscope (Axioplan2; Carl Zeiss, Thornwood, NY, USA) with a water-immersion objective (Achroplan×20 NA0.5w; Carl Zeiss). The wavelength of the excitation UV light (340 nm or 380 nm pulse; 250 msec) was switched using a filter wheel (Lambda 10-2; Sutter Instruments, Novato, CA, USA). The UV light was generated by a full spectrum 300W Xenon bulb (Lambda LS; Sutter Instruments), conducted to the microscope through a liquid light guide. The pair of fluorescent images was processed using a band-pass filter (485–515 nm) and exposed to a multiple format cooled CCD camera (CoolSnap-fx; Photometrics, Tucson, AZ, USA) at 6-sec intervals. The filter wheel and the CCD camera were controlled using digital imaging software (MetaFluor ver. 6.2; Japan Molecular Devices, Tokyo, Japan). The background fluorescence was also subtracted using the software.
# During image acquisition, leptin (PeproTech, Rocky Hill, NJ, USA), CCK-4 (Peptide Institute, Inc., Osaka, Japan), CCK-8s (Sigma-Aldrich, St. Louis, MO, USA), AG490 (Calbiochem, San Diego, CA), LY294002 (Calbiochem), LY225910 (R&D Systems, Minneapolis, MN, USA), LGM (LKT Laboratories Inc., St. Paul, MN, USA), and ATP (Sigma-Aldrich) were applied by switching the perfusate. The magnitude of Ca^2+ responses was determined by peak area analysis using Origin 5.0 software (OriginLab, Northampton, MA, USA).
# [1] = test system: c-Fos and pSTAT3 in the ARC; assay: Nuclear c-Fos and pSTAT3 in ARC after i.p. LGM; type: in vivo, rat; conditions: LGM 10 mg/kg i.p., 3 h, after RF, versus saline
# Experimental: (§3) To investigate the cellular consequences underlying the above behavioral responses, the different groups of rats that received RF were killed 3-h after the LGM (10 mg/kg) or saline injections. Subsequently, nuclear pSTAT3-ir and c-Fos-ir were visualized in the […] by immunohistochemistry. An astrocyte marker (glial fibrillary acidic protein, GFAP) was counterstained as a landmark of ARC because ARC is the astrocyte-rich ventral neuronal nucleus (Fig. 8A). […]
# as §2
# (§4) Male rats aged 2–3 months were individually housed in originally designed cylindrical chambers (30 cm ϕ, H30 cm). […] Because the bottom of the pellet server was placed 22 cm above the floor, purposeful food access behavior, but not general locomotor activities, was counted using this system. The ON/OFF signals from the sensor were fed into a laptop computer through a photo-coupler isolated digital I/O card (Contec Inc. PIO-16/16L) and automatically counted at 3-min intervals by software written by M.I.
# VMN cells = assay: Ca2+ imaging in rat VMN slices; type: cell-based; conditions: LGM 1 µM; leptin 1–1,000 nM; p < 0.01 two-way ANOVA
# CCK-1 receptor = assay: Food access frequency after i.p. LGM following 1-h restricted feeding; type: in vivo, rat; conditions: LGM 10 mg/kg i.p., 3 h before re-feeding; n = 5–6 per group; p < 0.05
# Experimental: Male rats aged 2–3 months were individually housed in originally designed cylindrical chambers (30 cm ϕ, H30 cm). Food was given ad libitum from slits of stainless pellet server placed 22 cm above the floor. During the RF, rats were fed with fatty food paste composed of 50% nutrient commixture chow powder, 20% soybean oil, and 30% water on a glass dish. Following removal of the dish, sterilized saline (1 ml/kg body weight) were i.p. injected. Leftover food paste was weighed after RF to calculate daily intake. Rats were acclimatized to this environment for 4 days. On day 5 of RF, saline or LGM (2 or 10 mg/kg body weight) dissolved in saline was injected. Three hours after the drug injection, rats were re-fed with regular chow in a previously setup pellet server. A touch sensing probe (Elekit PS-306) was connected to the pellet server. Because the bottom of the pellet server was placed 22 cm above the floor, purposeful food access behavior, but not general locomotor activities, was counted using this system. The ON/OFF signals from the sensor were fed into a laptop computer through a photo-coupler isolated digital I/O card (Contec Inc. PIO-16/16L) and automatically counted at 3-min intervals by software written by M.I.
# [2] = test system: c-Fos and pSTAT3 in the VMN; assay: Nuclear c-Fos and pSTAT3 in VMN after i.p. LGM; type: in vivo, rat; conditions: LGM 10 mg/kg i.p., 3 h, after RF, versus saline
# Experimental: as §3, §2, §4
# [3] = test system: CCK-2 receptor (C6 cells); assay: Ca2+ imaging (Fura-2), CCK-2 antagonism added to LGM in C6 cells; type: cell-based, rat; conditions: LY225910 100 nM additional to LGM 100 nM; CCK-8s 10 nM; p < 0.01
# Experimental: as §1
# (§5) C6 cells plated on 35 mm plastic dishes were gently rinsed with buffered salt solution (BSS) consisting of 130 mM NaCl, 5.4 mM KCl, 2 mM CaCl2, 1 mM MgCl2, 5.5 mM D-glucose, and 10 mM HEPES/NaOH (pH 7.4), and incubated in BSS supplemented with 6 µM Fura-2 AM (Dojindo Laboratories, Kumamoto, Japan) for 30 min in a CO2 incubator. Prior to photometry, the cells were rinsed again with BSS, incubated at 37°C for 15 min, and then continuously perfused with BSS at 34°C at a flow rate of 3 mL/min. Fluorescence images were obtained using an upright microscope (Axioplan2; Carl Zeiss, Thornwood, NY, USA) with a water-immersion objective (Achroplan×20 NA0.5w; Carl Zeiss). The wavelength of the excitation UV light (340 nm or 380 nm pulse; 250 msec) was switched using a filter wheel (Lambda 10-2; Sutter Instruments, Novato, CA, USA). […] The background fluorescence was also subtracted using the software. […]
# [4] = test system: CCK-2 receptor (C6 cells); assay: Ca2+ imaging (Fura-2), CCK-2 receptor agonist response in C6 cells; type: cell-based, rat; conditions: CCK-4 100 nM; n = 35/three dishes; Fura-2, 34°C, BSS pH 7.4
# Experimental: as §1, §5
# [5] = test system: meal frequency / meal size; conditions: CCK; cited from earlier work
# Text: Although CCK and leptin have been commonly described as satiety controlling peptides, their differential roles have also been highlighted. […] Among the wide variety of intracellular signalling machineries linked to ObRb, it is still uncertain which pathway(s) is/are linked to what type of satiety controls. pSTAT3-ir is used as a genera ...
# mice = conditions: sub-threshold CCK and leptin, individually no effect on feeding; cited from earlier work
# Text: (§6) Also, the effect of CCK on satiety control is attenuated in Zucker fa/fa rats lacking functional leptin receptors. In addition, other evidence implicated that leptin-mediated satiety-controlling systems may strongly interact with CCK systems[18],[50]–[54]. For example, c-Fos expression in oxytocin neurons in the hypothalamic paraventricular nucleus is elevated by leptin administration, and these neurons have axons tha ...
# [6] = test system: Zucker fa/fa rats lacking functional leptin receptors; conditions: cited from earlier work
# Text: as §6
# rats = conditions: sub-threshold CCK and leptin, individually no effect on feeding; cited from earlier work
# Text: as §6
compound,measurement,setting,value
N#C/C(=C/c1ccc(O)c(O)c1)C(=O)NCc1ccccc1 [AG490],nuclear pSTAT3-ir with JAK inhibitor,"pSTAT3 in C6-ObRb cells; AG490 1 µM from 15 min prior to leptin stimulation until fixation, 30 images/three dishes, p < 0.01",significantly reduced nuclear pSTAT3-ir below the level of un-stimulated controls; also recorded: blocked leptin-induced nuclear pSTAT3 elevation
same,cytosolic pSTAT3 signal with kinase inhibitor,pSTAT3 in C6-ObRb cells,cytosolic pSTAT3 signal was not elevated
same,effect of JAK inhibitor on leptin amplification of CCK-8s-induced Ca2+ mobilization,"wild-type C6 cells; AG490 1 μM, 10 min, leptin pre-treatment, CCK-8s, n = 48/three dishes",leptin failed to amplify the CCK-8s-induced Ca^2+ mobilization; also recorded: significantly reduced leptin action for CCK-8s-induced Ca^2+ mobilization
Nc1ncnc2c1ncn2[C@@H]1O[C@H](COP(=O)(O)OP(=O)(O)OP(=O)(O)O)[C@@H](O)[C@H]1O [ATP],"Ca2+ mobilization, positive control",wild-type C6 cells; ATP 100 µM at the end of experiment,High Ca^2+ mobilization
"CCCCCN(CCCCC)C(=O)C(CCC(=O)O)NC(=O)c1ccc(Cl)c(Cl)c1 (stereo not shown) [LGM, lorglumide]","number of cells displaying c-Fos-ir, ARC",[1],failed to modulate the number of cells displaying c-Fos-ir
same,"number of cells displaying pSTAT3-ir, ARC","[1]; 14 images in four rats, p < 0.01",increased number of cells displaying pSTAT3-ir
same,effect of CCK-1 antagonist on leptin-induced Ca2+ responses,VMN cells,reduced leptin-induced Ca^2+ responses
same,food access frequency at the onset of re-feeding relative to saline control,CCK-1 receptor,1.8 times
same,"number of cells displaying c-Fos-ir, VMN","[2]; 18 images in four rats, p < 0.05",significantly decreased the number of cells displaying c-Fos-ir
same,"number of cells displaying pSTAT3-ir, VMN",[2]; P < 0.05,increased number of cells displaying pSTAT3-ir
CC(C)Oc1cccc(-n2c(CCc3c[nH]c4ccc(Br)cc34)nc3ccccc3c2=O)c1 [LY225910],reduction of CCK-8s-induced Ca2+ transients,[3],almost completely reduced
O=c1cc(N2CCOCC2)oc2c(-c3ccccc3)cccc12 [LY294002],cytosolic pSTAT3 signal with kinase inhibitor,pSTAT3 in C6-ObRb cells,cytosolic pSTAT3 signal was not elevated
same,nuclear pSTAT3-ir with PI3K inhibitor,"pSTAT3 in C6-ObRb cells; LY294002 50 µM from 15 min prior to leptin stimulation until fixation, 30 images/three dishes, p < 0.01",significantly reduced nuclear pSTAT3-ir below the level of un-stimulated controls; also recorded: blocked leptin-induced nuclear pSTAT3 elevation
same,effect of PI3K inhibitor on (leptin-amplified) CCK-8s-induced Ca2+ mobilization,"wild-type C6 cells; LY294002 50 µM, 10 min, leptin pre-treatment, CCK-8s, n = 45/three dishes",significantly inhibited CCK-8s-induced Ca^2+ mobilization; also recorded: significantly reduced leptin action for CCK-8s-induced Ca^2+ mobilization
CCK-4,C6 cells displaying Ca2+ transients,[4],approximately 20%
cholecystokinin [CCK],meal frequency,[5],reduce meal frequency
same,"food intake, co-administration with leptin",mice,dramatically reduced food intake
same,effect of CCK on satiety control in Zucker fa/fa rats,[6],attenuated
same,"food intake, co-administration with leptin",rats,dramatically reduced food intake
